Data reported in the NIST ThermoML archive (doi:10.1016/j.fluid.2004.12.005).
“And” between values parts separate entries of the source, which are not always exact repeats. Equal entries are not always repeated.

Columns and labels:
[1] = Solid-liquid equilibrium temperature; settings: 100 kPa; Crystal; visual observation
[2] = activity coefficient (dimensionless); of the first substance listed, at infinite dilution; xn = mol fraction of the nth substance listed; settings: Liquid, Chromatography, x1 = 0
[3] = excess molar enthalpy (molar enthalpy of mixing); xn = mol fraction of the nth substance listed; settings: Liquid, Flow calorimetry

Cc1ccc(C)cc1 [1,4-dimethylbenzene]
Settings | Solid-liquid equilibrium temperature [K]
[1] | 286.45

CCOC(C)=O [ethyl acetate] + CCCCCCCCCC
[2]
Settings | activity coefficient
303.16 K | 3.07
313.14 K | 2.95
323.17 K | 2.84
333.16 K | 2.75

CCOC(C)=O [ethyl acetate] + CCCCCC
[3]
Settings | excess molar enthalpy [kcal/mol]
363.15 K, 1583 kPa, x2 = 0.0377 | 0.042
363.15 K, 1583 kPa, x2 = 0.0764 | 0.0851
363.15 K, 1583 kPa, x2 = 0.1162 | 0.128
363.15 K, 1583 kPa, x2 = 0.157 | 0.164
363.15 K, 1583 kPa, x2 = 0.1989 | 0.196
363.15 K, 1583 kPa, x2 = 0.242 | 0.228
363.15 K, 1583 kPa, x2 = 0.2862 | 0.254
363.15 K, 1583 kPa, x2 = 0.3318 | 0.275
363.15 K, 1583 kPa, x2 = 0.3786 | 0.292
363.15 K, 1583 kPa, x2 = 0.4269 | 0.305
363.15 K, 1583 kPa, x2 = 0.4765 | 0.309
363.15 K, 1583 kPa, x2 = 0.5277 | 0.31
363.15 K, 1583 kPa, x2 = 0.5804 | 0.304
363.15 K, 1583 kPa, x2 = 0.6347 | 0.291
363.15 K, 1583 kPa, x2 = 0.6908 | 0.267
363.15 K, 1583 kPa, x2 = 0.7487 | 0.237
363.15 K, 1583 kPa, x2 = 0.8084 | 0.197
363.15 K, 1583 kPa, x2 = 0.8702 | 0.146
363.15 K, 1583 kPa, x2 = 0.934 | 0.0799
413.15 K, 1376 kPa, x2 = 0.0377 | 0.0453
413.15 K, 1376 kPa, x2 = 0.0765 | 0.0863
413.15 K, 1376 kPa, x2 = 0.1162 | 0.126
413.15 K, 1376 kPa, x2 = 0.1571 | 0.162
413.15 K, 1376 kPa, x2 = 0.199 | 0.195
413.15 K, 1376 kPa, x2 = 0.2421 | 0.224
413.15 K, 1376 kPa, x2 = 0.2864 | 0.251
413.15 K, 1376 kPa, x2 = 0.332 | 0.271
413.15 K, 1376 kPa, x2 = 0.3788 | 0.288
413.15 K, 1376 kPa, x2 = 0.427 | 0.301
413.15 K, 1376 kPa, x2 = 0.4767 | 0.305
413.15 K, 1376 kPa, x2 = 0.5279 | 0.306
413.15 K, 1376 kPa, x2 = 0.5806 | 0.3
413.15 K, 1376 kPa, x2 = 0.6349 | 0.288
413.15 K, 1376 kPa, x2 = 0.691 | 0.266
413.15 K, 1376 kPa, x2 = 0.7488 | 0.236
413.15 K, 1376 kPa, x2 = 0.8086 | 0.196
413.15 K, 1376 kPa, x2 = 0.8703 | 0.144
413.15 K, 1376 kPa, x2 = 0.934 | 0.0788

CCOC(C)=O [ethyl acetate] + CCCCCCCCCCCC
[2]
Settings | activity coefficient
303.16 K | 3.25
313.17 K | 3.05
323.2 K | 2.88
333.16 K | 2.71

CCCCCCCCCCCCCC(=O)OCC [ethyl tetradecanoate]
Settings | Solid-liquid equilibrium temperature
[1] | 286.33 K and 286.36 K

COC(C)=O [methyl ethanoate] + CCCCCC
[3]
Settings | excess molar enthalpy [kcal/mol]
363.15 K, 1617 kPa, x1 = 0.0801 | 0.119
363.15 K, 1617 kPa, x1 = 0.1552 | 0.211
363.15 K, 1617 kPa, x1 = 0.2259 | 0.28
363.15 K, 1617 kPa, x1 = 0.2925 | 0.331
363.15 K, 1617 kPa, x1 = 0.3554 | 0.365
363.15 K, 1617 kPa, x1 = 0.4148 | 0.386
363.15 K, 1617 kPa, x1 = 0.471 | 0.397
363.15 K, 1617 kPa, x1 = 0.5244 | 0.398
363.15 K, 1617 kPa, x1 = 0.575 | 0.392
363.15 K, 1617 kPa, x1 = 0.6232 | 0.382
363.15 K, 1617 kPa, x1 = 0.669 | 0.361
363.15 K, 1617 kPa, x1 = 0.7127 | 0.337
363.15 K, 1617 kPa, x1 = 0.7544 | 0.308
363.15 K, 1617 kPa, x1 = 0.7942 | 0.274
363.15 K, 1617 kPa, x1 = 0.8322 | 0.237
363.15 K, 1617 kPa, x1 = 0.8687 | 0.196
363.15 K, 1617 kPa, x1 = 0.9036 | 0.151
363.15 K, 1617 kPa, x1 = 0.937 | 0.103
363.15 K, 1617 kPa, x1 = 0.9692 | 0.0525
413.15 K, 1376 kPa, x1 = 0.0801 | 0.119
413.15 K, 1376 kPa, x1 = 0.1552 | 0.215
413.15 K, 1376 kPa, x1 = 0.2259 | 0.287
413.15 K, 1376 kPa, x1 = 0.2925 | 0.34
413.15 K, 1376 kPa, x1 = 0.3553 | 0.377
413.15 K, 1376 kPa, x1 = 0.4148 | 0.401
413.15 K, 1376 kPa, x1 = 0.471 | 0.413
413.15 K, 1376 kPa, x1 = 0.5244 | 0.415
413.15 K, 1376 kPa, x1 = 0.575 | 0.41
413.15 K, 1376 kPa, x1 = 0.6232 | 0.399
413.15 K, 1376 kPa, x1 = 0.669 | 0.379
413.15 K, 1376 kPa, x1 = 0.7127 | 0.354
413.15 K, 1376 kPa, x1 = 0.7544 | 0.321
413.15 K, 1376 kPa, x1 = 0.7942 | 0.286
413.15 K, 1376 kPa, x1 = 0.8322 | 0.246
413.15 K, 1376 kPa, x1 = 0.8687 | 0.203
413.15 K, 1376 kPa, x1 = 0.9036 | 0.155
413.15 K, 1376 kPa, x1 = 0.937 | 0.107
413.15 K, 1376 kPa, x1 = 0.9692 | 0.0543
